In assay [1] the target is T1, Human CD73 (amino acid residues 27-549) (Homo sapiens, UniProt P21589).
T1 construct: Human CD73 (amino acid residues 27-549); His tag (N); made in house; host or cells: E. coli
T1 sequence (P21589 27-549): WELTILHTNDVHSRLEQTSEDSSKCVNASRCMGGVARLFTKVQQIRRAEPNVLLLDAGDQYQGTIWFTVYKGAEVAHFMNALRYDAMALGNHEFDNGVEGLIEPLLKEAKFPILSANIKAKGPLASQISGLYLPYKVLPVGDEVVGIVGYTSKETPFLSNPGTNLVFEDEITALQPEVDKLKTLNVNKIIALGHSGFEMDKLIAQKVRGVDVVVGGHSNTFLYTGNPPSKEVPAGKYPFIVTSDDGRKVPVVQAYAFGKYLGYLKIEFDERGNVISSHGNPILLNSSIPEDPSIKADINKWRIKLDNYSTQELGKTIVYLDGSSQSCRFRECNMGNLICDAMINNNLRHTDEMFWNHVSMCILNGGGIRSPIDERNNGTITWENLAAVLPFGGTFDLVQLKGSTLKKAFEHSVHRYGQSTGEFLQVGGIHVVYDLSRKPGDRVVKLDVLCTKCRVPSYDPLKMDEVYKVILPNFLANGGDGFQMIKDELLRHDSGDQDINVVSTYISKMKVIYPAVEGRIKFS
As to the kind of experiment: CD73 enzymatic assay (luciferase-based indirect assay, CellTiter-Glo). Format: biochemical. To be noted: 0.4 nM CD73, 150 μM AMP, 1 hour at room temperature. The procedure, abridged: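 N-His human CD73 (27-549) expressed in E. coli, 0.4 nM, incubated with 150 μM AMP and compound in 50 mM HEPES pH 7.4, 0.01% Tween-20, 1 h at RT. Remaining AMP read via CellTiter-Glo luminescence with 1 μM ATP after 30 min; IC50 from nonlinear regression of % inhibition.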
A general note: ATP-based viability assays read luminescence as a measure of living cells.

For assay [2], the target named is T2, human CD73 (Homo sapiens, UniProt P21589).
T2 construct: expressed in transfected cells
T2 sequence (P21589 27-549): T1 sequence (P21589 27-549)
Kind of assay: Inhibitor activity against CD73 in cell based assay (CD73 expressing CHO-K1 cells). Particulars: CHO-K1 cells expressing human CD73, 150 μM AMP, 4 hours of incubation; read-out: CHO-K1 CELL_VARIANT: CD73 IC50. The essentials:
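Stable human CD73 CHO-K1 cells, 1×10^4/well, exposed to an 8-point 1:3 compound series (top 10 μM, 0.2% DMSO) plus 150 μM AMP for 4 h. Remaining AMP in the supernatant was read by CellTiter-Glo 2.0 luminescence with 1 μM ATP after 30 min at room temperature. IC50 came from nonlinear regression of % inhibition against cell and media-only controls.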

Here are results for twelve molecules from US12202818B2, “Compounds and methods for CD73 modulation and indications therefor” (Opna Bio SA, priority 2020, dated 2025).

For orientation: IC50 means the concentration needed to halve the response being measured. Take `Cc1nn(C(CO)CCl)c(C)c1-c1ccnc(O[C@@H]2CCN(c3cn[nH]c(=O)c3Cl)C2)c1` (stereo partly drawn) [P-0069, 4-chloro-5-((3R)-3-((4-(1-(1-chloro-3-hydroxypropan-2-yl)-3,5-dimethyl-1H-pyrazol-4-yl)pyridin-2-yl)oxy)pyrrolidin-1-yl)pyridazin-3(2H)-one]: the IC50 in assay [1] and in assay [2] was 0.001 to 10 µM in each case.

Take `Cc1nn(C2COC2)c(C)c1-c1ccnc(O[C@@H]2CCN(c3cn[nH]c(=O)c3Cl)C2)c1` [P-0070, (R)-4-chloro-5-(3-((4-(3,5-dimethyl-1-(oxetan-3-yl)-1H-pyrazol-4-yl)pyridin-2-yl)oxy)pyrrolidin-1-yl)pyridazin-3(2H)-one]: the half-maximal inhibitory concentration (IC50) in assay [1] and in assay [2] was 0.001 to 10 µM each time.

For the molecule `O=c1[nH]ncc(N2CC[C@@H](Oc3cc(C4CCNCC4)ccn3)C2)c1Cl` [P-0071, (R)-4-chloro-5-(3-((4-(piperidin-4-yl)pyridin-2-yl)oxy)pyrrolidin-1-yl)pyridazin-3(2H)-one], the IC50 in assay [1] and in assay [2] was 0.001 to 10 µM throughout.

On to `O=c1[nH]ncc(N2CC[C@@H](Oc3cc(C4CCOCC4)ccn3)C2)c1Cl` [P-0072, (R)-4-chloro-5-(3-((4-(tetrahydro-2H-pyran-4-yl)pyridin-2-yl)oxy)pyrrolidin-1-yl)pyridazin-3(2H)-one], for which the IC50 in assay [1] and in assay [2] was 0.001 to 10 µM each time.

For the molecule `O=c1[nH]ncc(N2CC[C@@H](Oc3cc(C4CCCC4)ccn3)C2)c1Cl` [P-0073, (R)-4-chloro-5-(3-((4-cyclopentylpyridin-2-yl)oxy)pyrrolidin-1-yl)pyridazin-3(2H)-one], the IC50 in assay [1] and in assay [2] was 0.001 to 10 µM each time.

As for `N#CC1CCN(c2ccnc(O[C@@H]3CCN(c4cn[nH]c(=O)c4Cl)C3)c2)CC1` [P-0074, (R)-1-(2-((1-(5-chloro-6-oxo-1,6-dihydropyridazin-4-yl)pyrrolidin-3-yl)oxy)pyridin-4-yl)piperidine-4-carbonitrile], the IC50 in assay [1] and in assay [2] was 0.001 to 10 µM in each case.

For the molecule `O=c1[nH]ncc(N2CC[C@@H](Oc3cc(C4=CCNCC4)ccn3)C2)c1Cl` [P-0075, (R)-4-chloro-5-(3-((1′,2′,3′,6′-tetrahydro-[4,4′-bipyridin]-2-yl)oxy)pyrrolidin-1-yl)pyridazin-3(2H)-one], the IC50 in assay [1] and in assay [2] was 0.001 to 10 µM in each case.

Regarding `Cc1nn(CCO)c(C)c1-c1ccnc(O[C@@H]2CCN(c3cn[nH]c(=O)c3Cl)C2)c1` [P-0076, (R)-4-chloro-5-(3-((4-(1-(2-hydroxyethyl)-3,5-dimethyl-1H-pyrazol-4-yl)pyridin-2-yl)oxy)pyrrolidin-1-yl)pyridazin-3(2H)-one], the IC50 in assay [1] and in assay [2] was 0.001 to 10 µM each time.

As to `CCn1nc(C)c(-c2ccnc(O[C@@H]3CCN(c4cn[nH]c(=O)c4Cl)C3)c2)c1C` [P-0077, (R)-4-chloro-5-(3-((4-(1-ethyl-3,5-dimethyl-1H-pyrazol-4-yl)pyridin-2-yl)oxy)pyrrolidin-1-yl)pyridazin-3(2H)-one], the IC50 in assay [1] and in assay [2] was 0.001 to 10 µM throughout.

As to `O=c1[nH]ncc(N2CC[C@@H](Oc3cc(C4=CCOCC4)ccn3)C2)c1Cl` [P-0078, (R)-4-chloro-5-(3-((4-(3,6-dihydro-2H-pyran-4-yl)pyridin-2-yl)oxy)pyrrolidin-1-yl)pyridazin-3(2H)-one], the IC50 in assay [1] and in assay [2] was 0.001 to 10 µM each time.

For the molecule `CC1(C)CCCN1c1ccnc(O[C@@H]2CCN(c3cn[nH]c(=O)c3Cl)C2)c1` [P-0079, (R)-4-chloro-5-(3-((4-(2,2-dimethylpyrrolidin-1-yl)pyridin-2-yl)oxy)pyrrolidin-1-yl)pyridazin-3(2H)-one], the IC50 in assay [1] and in assay [2] was 0.001 to 10 µM each time.

For `CC1(C)CNCCN1c1ccnc(O[C@@H]2CCN(c3cn[nH]c(=O)c3Cl)C2)c1` [P-0080, (R)-4-chloro-5-(3-((4-(2,2-dimethylpiperazin-1-yl)pyridin-2-yl)oxy)pyrrolidin-1-yl)pyridazin-3(2H)-one], the IC50 in assay [1] was 0.001 to 10 µM; in assay [2] it was 10 to 100 µM.
